Results as given in ChEMBL document CHEMBL1201862, “PubChem BioAssay data set” (2004).
Activity calls are given as the source filed them.

Assays:
[1] = biological target: Potassium voltage-gated channel subfamily KQT member 2 (Rattus norvegicus, UniProt O88943, W236L); test: potentiation of rat KCNQ2 current – cell-based, automated electrophysiology, mechanism study for KCNQ2 potentiator project, dose response (AID 2603); format: functional
Melanocortin receptor 4 = Melanocortin receptor 4 (Homo sapiens, UniProt P32245); test: inhibitors of MC4R cAMP signaling – cell-based, TR-FRET, biased antagonists, dose response (AID 602298); format: functional;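 also: antagonist potency against agonist-stimulated cAMP production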
Melanocortin receptor 4, sequence (P32245 whole entry): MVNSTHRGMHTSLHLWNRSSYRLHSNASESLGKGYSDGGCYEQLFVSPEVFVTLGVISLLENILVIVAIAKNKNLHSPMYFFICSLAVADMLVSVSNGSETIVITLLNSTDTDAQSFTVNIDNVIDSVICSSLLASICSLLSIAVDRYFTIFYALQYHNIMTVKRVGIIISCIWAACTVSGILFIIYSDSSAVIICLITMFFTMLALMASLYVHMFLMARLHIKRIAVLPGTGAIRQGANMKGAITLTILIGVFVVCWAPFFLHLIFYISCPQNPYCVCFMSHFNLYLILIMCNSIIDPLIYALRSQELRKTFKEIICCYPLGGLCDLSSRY

[2] = cAMP pathway inhibition in counterscreen cell line – TR-FRET cAMP detection, counter-screen for MC4R biased antagonist project, dose response (AID 602305); format: functional, cell-based;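 also: U2OS cells stimulated with forskolin near its EC80 as the cAMP inducer; potency is for inhibition of forskolin-stimulated cAMP signaling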
[3] = A High Throughput Confirmatory Assay used to Identify Novel Compounds that Inhibit Mycobacterium Tuberculosis in the absence of Glycerol.; format: functional
[4] = microbe, parasite or virus in culture; format: functional; conditions: Mycobacterium tuberculosis
Vero = test: cells; format: functional; conditions: Chlorocebus sabaeus
[5] = Trypanosoma cruzi growth suppression in host cells – NIH3T3 host cells, beta-gal luminescence, confirmation (AID 2044); format: functional, cell-based;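 also: intracellular parasites grown in NIH/3T3 mouse fibroblasts as host cells; luminescent beta-galactosidase reporter signal from transgenic T. cruzi replicating inside host cells; inhibitors lower the luminescence signal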
[6] = NIH3T3 cell viability loss – ATP luminescence, mouse fibroblasts, counter-screen, dose response (AID 2010); format: functional, cell-based;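 also: cells exposed to compound for about 90 hours before reading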
[7] = biological target: Peroxisome proliferator-activated receptor gamma/Nuclear receptor corepressor 2 (Homo sapiens, UniProt P37231+Q9Y618); test: Counterscreen for NR2E3 inverse agonists: TR-FRET-based biochemical high throughput dose response assay to identify inverse agonists of the interaction between peroxisome proliferator-activated receptor gamma (PPARg) and nuclear receptor co-repressor 2 (NCOR2).; format: functional
Peroxisome proliferator-activated receptor gamma/Nuclear receptor corepressor 2, sequence (P37231 whole entry): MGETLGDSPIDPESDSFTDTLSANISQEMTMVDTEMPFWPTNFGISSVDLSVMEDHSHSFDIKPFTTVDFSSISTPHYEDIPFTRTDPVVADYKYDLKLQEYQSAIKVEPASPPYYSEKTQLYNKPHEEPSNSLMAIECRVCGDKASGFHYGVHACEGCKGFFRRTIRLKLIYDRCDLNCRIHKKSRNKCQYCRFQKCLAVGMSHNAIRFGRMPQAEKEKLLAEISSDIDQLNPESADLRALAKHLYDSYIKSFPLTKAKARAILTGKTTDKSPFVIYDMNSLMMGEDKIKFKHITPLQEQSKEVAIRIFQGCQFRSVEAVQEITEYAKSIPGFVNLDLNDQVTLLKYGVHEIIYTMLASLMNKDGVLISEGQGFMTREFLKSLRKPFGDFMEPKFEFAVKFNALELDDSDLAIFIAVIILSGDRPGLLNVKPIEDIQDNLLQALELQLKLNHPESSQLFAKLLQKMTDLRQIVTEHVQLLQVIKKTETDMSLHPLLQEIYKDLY
Peroxisome proliferator-activated receptor gamma/Nuclear receptor corepressor 2, sequence (Q9Y618 whole entry): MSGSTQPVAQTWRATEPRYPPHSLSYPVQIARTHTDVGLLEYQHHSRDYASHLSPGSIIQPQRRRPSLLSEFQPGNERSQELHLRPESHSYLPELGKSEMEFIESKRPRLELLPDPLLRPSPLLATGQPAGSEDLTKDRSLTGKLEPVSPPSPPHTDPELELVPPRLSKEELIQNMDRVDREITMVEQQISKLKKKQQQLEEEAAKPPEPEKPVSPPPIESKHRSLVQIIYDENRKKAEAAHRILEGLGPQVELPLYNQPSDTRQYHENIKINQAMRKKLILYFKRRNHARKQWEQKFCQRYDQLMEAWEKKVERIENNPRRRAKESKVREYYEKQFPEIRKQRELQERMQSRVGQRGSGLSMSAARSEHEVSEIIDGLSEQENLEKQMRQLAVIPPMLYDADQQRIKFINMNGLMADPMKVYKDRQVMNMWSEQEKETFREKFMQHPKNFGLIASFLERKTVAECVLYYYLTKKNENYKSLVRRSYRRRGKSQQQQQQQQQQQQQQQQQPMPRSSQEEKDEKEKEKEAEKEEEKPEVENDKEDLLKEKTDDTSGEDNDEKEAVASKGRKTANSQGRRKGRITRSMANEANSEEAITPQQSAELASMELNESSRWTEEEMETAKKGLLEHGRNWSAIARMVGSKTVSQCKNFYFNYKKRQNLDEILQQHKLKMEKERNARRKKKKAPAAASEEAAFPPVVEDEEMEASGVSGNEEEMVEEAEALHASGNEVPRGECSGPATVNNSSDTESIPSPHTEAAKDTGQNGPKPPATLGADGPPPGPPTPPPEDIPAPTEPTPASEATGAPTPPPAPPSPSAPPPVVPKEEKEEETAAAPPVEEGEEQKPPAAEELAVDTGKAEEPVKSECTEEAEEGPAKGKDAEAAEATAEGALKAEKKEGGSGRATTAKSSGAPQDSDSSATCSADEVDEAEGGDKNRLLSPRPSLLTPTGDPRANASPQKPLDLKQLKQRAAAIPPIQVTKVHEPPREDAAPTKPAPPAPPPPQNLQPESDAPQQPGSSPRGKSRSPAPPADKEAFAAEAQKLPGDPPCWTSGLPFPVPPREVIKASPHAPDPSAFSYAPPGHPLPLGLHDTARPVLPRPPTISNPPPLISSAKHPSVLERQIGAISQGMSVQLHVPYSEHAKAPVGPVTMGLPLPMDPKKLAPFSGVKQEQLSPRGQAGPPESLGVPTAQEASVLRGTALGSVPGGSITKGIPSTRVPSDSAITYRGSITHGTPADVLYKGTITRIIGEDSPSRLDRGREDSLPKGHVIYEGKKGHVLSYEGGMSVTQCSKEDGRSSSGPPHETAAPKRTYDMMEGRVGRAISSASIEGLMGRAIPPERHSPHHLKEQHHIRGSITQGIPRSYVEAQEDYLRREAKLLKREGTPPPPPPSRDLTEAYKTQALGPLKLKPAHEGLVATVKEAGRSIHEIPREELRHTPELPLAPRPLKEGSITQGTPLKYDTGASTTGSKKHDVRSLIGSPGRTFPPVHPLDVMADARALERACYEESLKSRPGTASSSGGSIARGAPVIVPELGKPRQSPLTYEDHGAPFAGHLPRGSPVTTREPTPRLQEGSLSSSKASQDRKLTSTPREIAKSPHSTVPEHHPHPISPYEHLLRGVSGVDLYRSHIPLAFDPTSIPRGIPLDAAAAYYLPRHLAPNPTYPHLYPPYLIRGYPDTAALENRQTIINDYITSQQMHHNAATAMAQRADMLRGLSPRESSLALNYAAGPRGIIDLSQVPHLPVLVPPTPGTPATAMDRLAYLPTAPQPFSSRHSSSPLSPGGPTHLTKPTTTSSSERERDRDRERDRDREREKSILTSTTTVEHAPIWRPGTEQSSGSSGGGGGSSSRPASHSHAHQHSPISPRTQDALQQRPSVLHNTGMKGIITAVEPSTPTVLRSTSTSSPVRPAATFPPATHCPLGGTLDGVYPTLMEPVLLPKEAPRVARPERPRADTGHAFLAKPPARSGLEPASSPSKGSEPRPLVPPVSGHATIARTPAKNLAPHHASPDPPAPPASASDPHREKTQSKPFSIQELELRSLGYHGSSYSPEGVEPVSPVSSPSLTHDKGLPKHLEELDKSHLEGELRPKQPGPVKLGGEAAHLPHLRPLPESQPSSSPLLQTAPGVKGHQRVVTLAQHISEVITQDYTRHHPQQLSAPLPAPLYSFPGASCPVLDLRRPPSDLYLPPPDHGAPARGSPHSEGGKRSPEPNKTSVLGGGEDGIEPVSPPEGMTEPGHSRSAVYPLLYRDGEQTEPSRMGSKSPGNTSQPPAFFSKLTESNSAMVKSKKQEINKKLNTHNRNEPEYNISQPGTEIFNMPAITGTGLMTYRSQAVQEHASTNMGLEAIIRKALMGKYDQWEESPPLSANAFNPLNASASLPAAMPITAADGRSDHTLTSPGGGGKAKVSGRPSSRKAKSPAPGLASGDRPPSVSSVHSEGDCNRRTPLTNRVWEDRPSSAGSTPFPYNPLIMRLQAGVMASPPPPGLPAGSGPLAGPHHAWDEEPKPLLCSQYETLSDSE

[8] = biological target: Photoreceptor-specific nuclear receptor (Homo sapiens, UniProt Q9Y5X4); test: ligands suppressing NR2E3 nuclear receptor activity – biochemical, TR-FRET, dose response (AID 463256); format: functional
Photoreceptor-specific nuclear receptor, sequence (Q9Y5X4 whole entry): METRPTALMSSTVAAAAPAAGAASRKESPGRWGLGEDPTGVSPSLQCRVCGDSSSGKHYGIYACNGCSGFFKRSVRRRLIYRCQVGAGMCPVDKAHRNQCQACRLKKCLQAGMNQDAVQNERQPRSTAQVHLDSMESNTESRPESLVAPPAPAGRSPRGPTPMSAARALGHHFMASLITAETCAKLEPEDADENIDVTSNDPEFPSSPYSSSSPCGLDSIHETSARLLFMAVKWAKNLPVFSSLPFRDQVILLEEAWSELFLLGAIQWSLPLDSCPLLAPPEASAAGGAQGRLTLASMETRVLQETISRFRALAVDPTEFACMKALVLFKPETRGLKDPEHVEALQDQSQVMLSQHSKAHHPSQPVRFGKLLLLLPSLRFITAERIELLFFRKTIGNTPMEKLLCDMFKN

[9] = biological target: Diphosphomevalonate decarboxylase (Streptococcus pneumoniae serotype 2 (strain D39 / NCTC 7466), UniProt Q9FD53); test: diphosphomevalonate decarboxylase inhibitor confirmation – biochemical, cuvette format, coupled NADH fluorescence (AID 1028); format: functional
Diphosphomevalonate decarboxylase, sequence (Q9FD53 whole entry): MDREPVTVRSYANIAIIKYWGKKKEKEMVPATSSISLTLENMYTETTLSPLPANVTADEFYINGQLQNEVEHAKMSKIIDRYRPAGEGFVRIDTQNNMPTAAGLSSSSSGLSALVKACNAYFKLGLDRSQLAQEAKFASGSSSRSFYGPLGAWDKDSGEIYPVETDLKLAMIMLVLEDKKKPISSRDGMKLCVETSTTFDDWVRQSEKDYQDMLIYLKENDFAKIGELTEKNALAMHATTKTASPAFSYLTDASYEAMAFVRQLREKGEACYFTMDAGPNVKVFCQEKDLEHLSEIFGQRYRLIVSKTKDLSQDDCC

[10] = biological target: T1, Tyrosine-protein phosphatase non-receptor type 7 (Homo sapiens, UniProt P35236); test: HePTP tyrosine phosphatase activity blockers – biochemical, absorbance, leukemia target, primary screen (AID 521); format: functional
T1 sequence (P35236 whole entry): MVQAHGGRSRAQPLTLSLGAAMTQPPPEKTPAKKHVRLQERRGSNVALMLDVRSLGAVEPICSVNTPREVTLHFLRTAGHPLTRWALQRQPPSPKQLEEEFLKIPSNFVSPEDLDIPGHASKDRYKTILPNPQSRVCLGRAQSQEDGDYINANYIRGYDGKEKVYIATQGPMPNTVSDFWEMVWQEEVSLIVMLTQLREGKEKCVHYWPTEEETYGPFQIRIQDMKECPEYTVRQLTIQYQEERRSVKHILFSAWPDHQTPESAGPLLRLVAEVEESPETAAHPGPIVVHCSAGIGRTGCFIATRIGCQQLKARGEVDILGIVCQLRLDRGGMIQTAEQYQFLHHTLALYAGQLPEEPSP

Potassium voltage-gated channel subfamily KQT member 2, sequence (O88943 whole entry W236L): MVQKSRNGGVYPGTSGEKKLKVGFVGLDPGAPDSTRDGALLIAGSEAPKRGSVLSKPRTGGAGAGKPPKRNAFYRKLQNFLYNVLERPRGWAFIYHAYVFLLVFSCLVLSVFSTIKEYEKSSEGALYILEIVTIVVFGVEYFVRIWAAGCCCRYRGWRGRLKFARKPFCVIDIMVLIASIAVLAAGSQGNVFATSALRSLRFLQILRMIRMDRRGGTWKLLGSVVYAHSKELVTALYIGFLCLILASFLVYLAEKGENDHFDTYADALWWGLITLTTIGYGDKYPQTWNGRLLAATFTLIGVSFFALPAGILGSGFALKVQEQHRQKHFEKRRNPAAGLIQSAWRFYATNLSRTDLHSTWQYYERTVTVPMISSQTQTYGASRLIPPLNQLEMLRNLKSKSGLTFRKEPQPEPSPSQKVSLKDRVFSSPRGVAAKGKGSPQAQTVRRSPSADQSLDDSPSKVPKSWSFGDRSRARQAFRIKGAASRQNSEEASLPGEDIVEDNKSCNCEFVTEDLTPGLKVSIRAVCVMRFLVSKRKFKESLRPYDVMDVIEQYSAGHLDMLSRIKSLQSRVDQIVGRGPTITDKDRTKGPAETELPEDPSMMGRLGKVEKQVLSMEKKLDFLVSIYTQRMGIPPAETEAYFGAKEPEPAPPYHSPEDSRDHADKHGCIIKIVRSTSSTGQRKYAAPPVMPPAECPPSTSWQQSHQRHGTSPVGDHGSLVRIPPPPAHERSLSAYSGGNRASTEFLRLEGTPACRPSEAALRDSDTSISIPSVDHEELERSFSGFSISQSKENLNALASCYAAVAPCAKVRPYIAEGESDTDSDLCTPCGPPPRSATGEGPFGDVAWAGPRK

SMILES: COC(=O)CSc1[nH]c2ccc(F)cc2c1[N+](=O)[O-]
- EC50 [1]: 0.17 µM (active)
- IC50 (Melanocortin receptor 4): > 64.6 µM (inactive)
- IC50 [2]: > 64.6 µM (inactive)

SMILES: CC(C(Sc1ccccc1N)c1ccccc1)[N+](=O)[O-] (stereo not drawn)
- IC50 [3]: > 100 µM (active)
- CC50 [4]: 32.6 µM (active)
- CC50 (Vero): 16.6 µM (active)

SMILES: CN1CCc2c(sc3c2c(=O)n(-c2ccccc2)c2nnc(SCc4ccc(Cl)cc4)n32)C1
- EC50 [5]: < 0.1 µM (active)
- EC50 [6]: > 60 µM (not active)
- EC50 (cells): < 0.004 µM (active)

SMILES: CC(=O)c1sc(NS(=O)(=O)c2ccc(C)cc2)nc1-c1ccccc1
- IC50 [7]: > 39.8 µM (not active)
- IC50 [8]: > 39.8 µM (not active)

SMILES: O=C(NCC1CC1)c1ccc(-n2sc3ccccc3c2=O)cc1
- IC50 [9]: 11.9 µM (active)

SMILES: COCC(=O)N1CCC(n2nnc3cc(F)ccc32)CC1
- IC50 [10]: > 100 µM (not active)
